For 25 molecules, IC50 results are on record in patent publication US9440982B2 (Eolas Therapeutics, Inc., priority 2012, dated 2016).

The structures appear in SMILES notation.

The first experiment addresses T1, OX1 (Homo sapiens, UniProt O43613).
T1 construct: expressed in transfected cells; host or cells: CHO (CHO-OX1, kept under selection antibiotic)
T1 sequence (O43613 1-425): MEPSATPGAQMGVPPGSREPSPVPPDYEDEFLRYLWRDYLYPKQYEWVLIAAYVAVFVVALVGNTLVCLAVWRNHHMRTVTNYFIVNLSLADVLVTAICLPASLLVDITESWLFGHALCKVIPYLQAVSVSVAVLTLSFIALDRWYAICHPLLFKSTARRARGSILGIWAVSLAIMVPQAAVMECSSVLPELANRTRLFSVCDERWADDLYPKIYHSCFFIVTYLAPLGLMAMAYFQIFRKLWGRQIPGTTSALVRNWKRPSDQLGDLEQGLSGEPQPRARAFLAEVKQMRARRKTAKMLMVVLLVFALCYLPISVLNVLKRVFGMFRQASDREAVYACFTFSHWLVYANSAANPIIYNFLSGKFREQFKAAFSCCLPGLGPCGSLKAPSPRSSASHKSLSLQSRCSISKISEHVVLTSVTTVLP
In words: Orexin receptor cell-based functional assay, [Ca2+]i by FLIPR, CHO-OX1 cells. The settings on record: CHO-OX1 cells, [Ca2+]i by FLIPR, antagonist dose-range 0.1 nM-10 μM, EC90 of OXA; read-out: OX1. The protocol:
Measurement of [Ca^2+]i using a FLIPR: CHO—OX1 or CHO—OX2 cells are seeded into black-walled clear-base 384-well plates (Costar) at a density of 20,000 cells per well in F12-K medium supplemented with 10% FBS and selection antibiotic (500 ug/ml G418 or 15 ug/ml Blasticidin) and cultured overnight. The cells are incubated with equal volume of calcium4 loading buffer (Molecular Devices, Inc.) containing 2.5 mM probenecid at 37° C. for 30 min, followed by putative OX1 or OX2 receptor antagonists (dose-range 0.1 nM-10 μM) for another 30 min.
The cells are incubated with equal volume of calcium6 loading buffer (Molecular Devices, Inc.) containing 2.5 mM probenecid at 37° C. for 2 h, followed by test compounds (dose-range 0.1 nM-10 μM) for another 30 min.
As to `Cc1nc(C(=O)N2CCC[C@@H](C)[C@H]2CNc2ccc(C(F)(F)F)cn2)c(-c2cccc(F)c2)s1` [Example A109, (5-(3-Fluorophenyl)-2-methylthiazol-4-yl)((2S,3R)-3-methyl-2-(((5-(trifluoromethyl)pyridin-2-yl)amino)methyl)piperidin-1-yl)methanone], the IC50 is < 10 nM.

On to `Cc1ccc(-c2cccnc2)c(C(=O)N2CCC[C@@H](C)[C@H]2CNc2ncc(Cl)cn2)n1` [Example A222, ((2S,3R)-2-(((5-Chloropyrimidin-2-yl)amino)methyl)-3-methylpiperidin-1-yl)(6-methyl-[3,3′-bipyridin]-2-yl)methanone], for which the IC50 came out at 82 nM.

`Cc1ccc(-c2ccnn2C)c(C(=O)N2CCC[C@@H](C)[C@H]2CNc2nc3cc(Cl)ccc3o2)c1` [Example A50, ((2S,3R)-2-(((5-Chlorobenzo[d]oxazol-2-yl)amino)methyl)-3-methylpiperidin-1-yl)(5-methyl-2-(1-methyl-1H-pyrazol-5-yl)phenyl)methanone]: the IC50 was determined as 230 nM.

For the molecule `Cc1nc(C(=O)N2CCCC3CN(c4nc5ccc(Cl)cc5o4)CC32)c(-c2ccc(F)cc2)s1` (stereo not shown) [Example A76, (6-(6-Chlorobenzo[d]oxazol-2-yl)octahydro-1H-pyrrolo[3,4-b]pyridin-1-yl)(5-(4-fluorophenyl)-2-methylthiazol-4-yl)methanone], the IC50 is > 1000 nM.

With `Cc1ccc(-n2cnc(C(F)(F)F)n2)c(C(=O)N2CCC[C@@H](C)[C@H]2CNc2nc3cc(Cl)ccc3o2)c1` [Example A64, ((2S,3R)-2-(((5-Chlorobenzo[d]oxazol-2-yl)amino)methyl)-3-methylpiperidin-1-yl)(5-methyl-2-(3-(trifluoromethyl)-1H-1,2,4-triazol-1-yl)phenyl)methanone], the IC50 is > 1000 nM.

In the case of `Cc1ccc(-n2nccn2)c(C(=O)N2CCC[C@@H](C)[C@H]2CNc2nc3ccccc3o2)c1` [Example A180, ((2S,3R)-2-((Benzo[d]oxazol-2-ylamino)methyl)-3-methylpiperidin-1-yl)(5-methyl-2-(2H-1,2,3-triazol-2-yl)phenyl)methanone], the IC50 was 4 nM.

`COc1ccc(-n2nccn2)c(C(=O)N2CCC[C@@H](C)[C@H]2CNc2ncc(C(F)(F)F)cn2)c1F` [Example A339, (2-Fluoro-3-methoxy-6-(2H-1,2,3-triazol-2-yl)phenyl)((2S,3R)-3-methyl-2-(((5-(trifluoromethyl)pyrimidin-2-yl)amino)methyl)piperidin-1-yl)methanone]: the IC50 turned out to be 5 nM.

Still in this experiment, the particulars now being: Table 2; CHO-OX1 cells, EC90 of OXA; read-out: IC50 Bioactivity OX1.
In the case of `Cc1nc(C(=O)N2CCC[C@@H](C)[C@H]2CNc2cncc(Cl)n2)c(-c2ccc(F)cc2)s1` (racemic) [Example 123, rac-cis-(2-(((6-Chloropyrazin-2-yl)amino)methyl)-3-methylpiperidin-1-yl)(5-(4-fluorophenyl)-2-methylthiazol-4-yl)methanone], the IC50 came to 3600 nM.

Regarding `Cc1nc(-c2ccccc2)c(C(=O)N2C(C)CCCC2CCOc2ccccc2)s1` (racemic) [Example 30, rac-(2-Methyl-4-phenylthiazol-5-yl)(2-methyl-6-(2-phenoxyethyl)piperidin-1-yl)methanone], the IC50 is 220 nM.

Regarding `Cc1ccc(-c2ncco2)c(C(=O)N2CCC[C@@H](C)[C@H]2CNc2ccc(C(F)(F)F)cn2)c1` (racemic) [Example 113, rac-cis-(3-Methyl-2-(((5-(trifluoromethyl)pyridin-2-yl)amino)methyl)piperidin-1-yl)(5-methyl-2-(oxazol-2-yl)phenyl)methanone], the IC50 is 25 nM.

With `Cc1nc(C(=O)N2CC(O)CCC2CNC(=O)c2cccc3cccnc23)c(-c2cccc(F)c2)s1` (racemic) [Example 51, N-((1-(5-(3-Fluorophenyl)-2-methylthiazole-4-carbonyl)-5-hydroxypiperidin-2-yl)methyl)quinoline-8-carboxamide], the IC50 turned out to be 10 nM.

For `O=C(NCC1CCC(F)CN1C(=O)c1ccccc1-c1ccccc1)c1cccc2cccnc12` (single isomer, unassigned) [Example 37, N-((1-(Biphenylcarbonyl)-5-fluoropiperidin-2-yl)methyl)quinoline-8-carboxamide], the IC50 is 1 nM.

Regarding `O=C(NCC1C2CCC(CC2)N1C(=O)c1ccccc1-c1ccccc1)c1cccc2cccnc12` (racemic) [Example 140, N-(((1s,4s)-2-([1,1′-Biphenyl]-2-carbonyl)-2-azabicyclo[2.2.2]octan-3-yl)methyl)quinoline-8-carboxamide], the IC50 is < 100 nM.

`Cc1nc(C(=O)N2CCC[C@H](C)[C@H]2CNc2ncc(Cl)cn2)c(-c2ccc(F)cc2)s1` (racemic) [Example 96, rac-trans-(2-(((5-Chloropyrimidin-2-yl)amino)methyl)-3-methylpiperidin-1-yl)(5-(4-fluorophenyl)-2-methylthiazol-4-yl)methanone]: the IC50 turned out to be 18 nM.

On to `Cc1ccc(-c2ccnn2C)c(C(=O)N2CCC[C@@H](C)[C@H]2CNc2ccc(C(F)(F)F)cn2)c1` (racemic) [Example 108, rac-cis-(3-Methyl-2-(((5-(trifluoromethyl)pyridin-2-yl)amino)methyl)piperidin-1-yl)(5-methyl-2-(1-methyl-1H-pyrazol-5-yl)phenyl)methanone], for which the IC50 was 13 nM.

As for `Cc1ccc(-c2ccncc2)c(C(=O)N2CCC[C@@H](C)[C@H]2CNc2ccc(C(F)(F)F)cn2)c1` (racemic) [Example 106, rac-cis-(3-Methyl-2-(((5-(trifluoromethyl)pyridin-2-yl)amino)methyl)piperidin-1-yl)(5-methyl-2-(pyridin-4-yl)phenyl)methanone], the IC50 came to 40 nM.

With `Cc1nc(C(=O)N2CCC[C@@H](C(C)C)[C@H]2CNc2nc3ccccc3o2)c(-c2ccc(F)cc2)s1` (racemic) [Example 84, rac-cis-((2S,3S)-2-((Benzo[d]oxazol-2-ylamino)methyl)-3-isopropylpiperidin-1-yl)(5-(4-fluorophenyl)-2-methylthiazol-4-yl)methanone], the IC50 is 35 nM.

As for `Cc1cc2c(C(=O)NCC3CCC(F)(F)CN3C(=O)c3nc(C)sc3-c3ccc(F)cc3)cccc2o1` (racemic) [Example 57, rac-N-((5,5-Difluoro-1-(5-(4-fluorophenyl)-2-methylthiazole-4-carbonyl)piperidin-2-yl)methyl)-2-methylbenzofuran-4-carboxamide], the IC50 was < 100 nM.

`COc1cnc(NC[C@@H]2[C@H](C)CCCN2C(=O)c2nc(C)sc2-c2ccc(F)cc2)nc1` (racemic) [Example 88, rac-cis-(2-(((5-Methoxypyrimidin-2-yl)amino)methyl)-3-methylpiperidin-1-yl) (5-(4-fluorophenyl)-2-methylthiazol-4-yl)methanone]: the IC50 turned out to be 42 nM.

In the case of `Cc1nc(C(=O)N2CCC[C@@H](C)[C@H]2CNc2cccc3cccnc23)c(-c2ccc(F)cc2)s1` (racemic) [Example 74, rac-cis-(3-Methyl-2-((quinolin-8-ylamino)methyl)piperidin-1-yl)(5-(4-fluorophenyl)-2-methylthiazol-4-yl)methanone], the IC50 turned out to be 58 nM.

For the molecule `Cc1nc(C(=O)N2CCC[C@@H](C)[C@H]2CNc2ccc(Cl)cn2)c(-c2ccc(F)cc2)s1` (racemic) [Example 18, rac-cis-(2-(((5-Chloropyridin-2-yl)amino)methyl)-3-methylpiperidin-1-yl)(5-(4-fluorophenyl)-2-methylthiazol-4-yl)methanone], the IC50 came out at 16 nM.

As for `Cc1nc(-c2ccccc2)c(C(=O)N2C[C@@H]3CCCC[C@@H]3[C@H]2CNC(=O)c2cccc3cccnc23)s1` (racemic) [Example 64, N-(((1S,3aR,7aS)-2-(2-Methyl-4-phenylthiazole-5-carbonyl)octahydro-1H-isoindol-1-yl)methyl)quinoline-8-carboxamide], the IC50 amounted to 3000 nM.

For `Cc1cnc(NC[C@@H]2[C@H](C)CCCN2C(=O)c2nc(C)sc2-c2ccc(F)cc2)nc1` (racemic) [Example 83, rac-cis-(3-Methyl-2-(((5-methylpyrimidin-2-yl)amino)methyl)piperidin-1-yl)(5-(4-fluorophenyl)-2-methylthiazol-4-yl)methanone], the IC50 came out at 30 nM.

As to `Cc1nc(C(=O)N2C[C@H]3CCC[C@H]3C2COc2nc3ccccc3o2)c(-c2ccc(F)cc2)s1` (mixture of isomers) [Example 102, (1-((Benzo[d]oxazol-2-yloxy)methyl)hexahydrocyclopenta[c]pyrrol-2(1H)-yl)(5-(4-fluorophenyl)-2-methylthiazol-4-yl)methanone], the IC50 was > 1000 nM.

On to `Cc1nc(C(=O)N2CC(F)(F)CCC2CNC(=O)c2cccc3cccnc23)c(-c2ccccc2)s1` (racemic) [Example 56, rac-N-((5,5-Difluoro-1-(2-methyl-5-phenylthiazole-4-carbonyl)piperidin-2-yl)methyl)quinoline-8-carboxamide], for which the IC50 is < 100 nM.
